# Reference: ChEMBL document CHEMBL2203055, “From α4β2 Nicotinic Ligands to the Discovery of σ1 Receptor Ligands: Pharmacophore Analysis and Rational Design” (ACS Med Chem Lett, 2012)
# pKi: −log10 of the molar value.
# Tests used:
# [1] = biological target: 5-hydroxytryptamine receptor 2B (Homo sapiens, UniProt P41595); experiment: Displacement of [3H]LSD from human recombinant 5-HT2B receptor after 1.5 hrs by microbeta scintillation counting analysis
# [2] = biological target: Beta-2 adrenergic receptor (Homo sapiens, UniProt P07550); experiment: Displacement of [125I]Iodopindolol from beta 2 adrenergic receptor after 1.5 hrs by microbeta scintillation counting analysis
# [3] = biological target: T1, Sodium-dependent dopamine transporter (Homo sapiens, UniProt Q01959); experiment: Displacement of [3H]WIN35428 from human recombinant DAT after 1.5 hrs by microbeta scintillation counting analysis
# T1 sequence (Q01959 whole entry): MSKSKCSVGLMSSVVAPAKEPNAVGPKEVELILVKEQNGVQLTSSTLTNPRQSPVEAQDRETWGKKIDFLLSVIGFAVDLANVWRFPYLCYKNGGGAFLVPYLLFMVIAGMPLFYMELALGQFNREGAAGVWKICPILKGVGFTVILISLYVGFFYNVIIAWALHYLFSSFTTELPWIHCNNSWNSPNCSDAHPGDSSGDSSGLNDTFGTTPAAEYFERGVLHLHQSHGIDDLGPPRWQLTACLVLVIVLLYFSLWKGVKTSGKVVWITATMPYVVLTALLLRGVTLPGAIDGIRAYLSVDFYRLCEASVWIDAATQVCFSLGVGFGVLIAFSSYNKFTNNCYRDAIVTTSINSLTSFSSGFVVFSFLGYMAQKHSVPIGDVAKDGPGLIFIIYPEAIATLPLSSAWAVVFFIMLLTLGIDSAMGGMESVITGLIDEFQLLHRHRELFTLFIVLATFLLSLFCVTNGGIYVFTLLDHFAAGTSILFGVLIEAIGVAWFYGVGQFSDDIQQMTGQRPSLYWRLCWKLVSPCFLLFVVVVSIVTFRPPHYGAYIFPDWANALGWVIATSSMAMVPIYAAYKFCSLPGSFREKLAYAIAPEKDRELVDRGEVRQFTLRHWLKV
# [4] = biological target: Muscarinic acetylcholine receptor M5 (Homo sapiens) (UniProt P08912); experiment: Displacement of [3H]QNB from human recombinant muscarinic M5 receptor at 10 uM after 1.5 hrs by microbeta scintillation counting analysis
# [5] = biological target: Neuronal acetylcholine receptor; alpha4/beta2 (Homo sapiens) (UniProt P17787+P43681); experiment: Displacement of [3H]epibatidine from alpha4beta2 nAChR at 10 uM after 4 hrs by liquid scintillation counting analysis; assay type: protein-complex assay
# [6] = Selectivity ratio of Ki for human recombinant NET to Ki for sigma 1 receptor in rat brain membrane; assay type: cell membranes
# Histamine H2 receptor [7] = biological target: T2, Histamine H2 receptor (Homo sapiens, UniProt P25021); experiment: Displacement of [3H]tiotidine from human recombinant histamine H2 receptor after 1.5 hrs by microbeta scintillation counting analysis
# T2 sequence (P25021 whole entry): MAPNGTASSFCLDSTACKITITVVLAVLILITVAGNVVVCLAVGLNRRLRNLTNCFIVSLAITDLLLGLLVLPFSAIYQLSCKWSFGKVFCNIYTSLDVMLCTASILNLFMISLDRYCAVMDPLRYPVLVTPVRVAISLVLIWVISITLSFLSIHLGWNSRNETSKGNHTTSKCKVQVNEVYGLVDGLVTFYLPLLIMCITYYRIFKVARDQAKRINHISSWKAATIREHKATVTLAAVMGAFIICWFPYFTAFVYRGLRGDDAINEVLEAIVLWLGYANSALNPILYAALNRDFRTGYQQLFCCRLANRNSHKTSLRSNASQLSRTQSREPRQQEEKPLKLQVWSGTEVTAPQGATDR
# [8] = biological target: Neuronal acetylcholine receptor; alpha4/beta4 (Homo sapiens) (UniProt P30926+P43681); experiment: Displacement of [3H]epibatidine from alpha4beta4 nAChR at 10 uM after 4 hrs by liquid scintillation counting analysis; assay type: protein-complex assay
# [9] = biological target: 5-hydroxytryptamine receptor 2C (Homo sapiens, UniProt P28335); experiment: Displacement of [3H]mesulergine from human recombinant 5-HT2C receptor after 1.5 hrs by microbeta scintillation counting analysis
# 5-hydroxytryptamine receptor 2C, sequence (P28335 whole entry): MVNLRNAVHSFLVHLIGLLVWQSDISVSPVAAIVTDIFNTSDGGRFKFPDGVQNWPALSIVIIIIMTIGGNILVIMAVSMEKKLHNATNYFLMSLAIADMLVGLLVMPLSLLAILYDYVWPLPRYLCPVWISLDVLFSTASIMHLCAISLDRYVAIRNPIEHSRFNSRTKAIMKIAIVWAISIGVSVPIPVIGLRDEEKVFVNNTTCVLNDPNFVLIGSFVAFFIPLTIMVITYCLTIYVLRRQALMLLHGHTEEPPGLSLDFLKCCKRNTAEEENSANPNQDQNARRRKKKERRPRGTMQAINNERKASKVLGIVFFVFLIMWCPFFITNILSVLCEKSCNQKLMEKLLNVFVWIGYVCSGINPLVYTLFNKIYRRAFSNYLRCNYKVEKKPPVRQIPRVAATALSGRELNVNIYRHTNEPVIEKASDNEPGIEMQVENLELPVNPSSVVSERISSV
# [10] = biological target: Muscarinic acetylcholine receptor M3 (Homo sapiens) (UniProt P20309); experiment: Displacement of [3H]QNB from human recombinant muscarinic M3 receptor at 10 uM after 1.5 hrs by microbeta scintillation counting analysis
# Muscarinic acetylcholine receptor M3 (Homo sapiens), sequence (P20309 whole entry, looked up): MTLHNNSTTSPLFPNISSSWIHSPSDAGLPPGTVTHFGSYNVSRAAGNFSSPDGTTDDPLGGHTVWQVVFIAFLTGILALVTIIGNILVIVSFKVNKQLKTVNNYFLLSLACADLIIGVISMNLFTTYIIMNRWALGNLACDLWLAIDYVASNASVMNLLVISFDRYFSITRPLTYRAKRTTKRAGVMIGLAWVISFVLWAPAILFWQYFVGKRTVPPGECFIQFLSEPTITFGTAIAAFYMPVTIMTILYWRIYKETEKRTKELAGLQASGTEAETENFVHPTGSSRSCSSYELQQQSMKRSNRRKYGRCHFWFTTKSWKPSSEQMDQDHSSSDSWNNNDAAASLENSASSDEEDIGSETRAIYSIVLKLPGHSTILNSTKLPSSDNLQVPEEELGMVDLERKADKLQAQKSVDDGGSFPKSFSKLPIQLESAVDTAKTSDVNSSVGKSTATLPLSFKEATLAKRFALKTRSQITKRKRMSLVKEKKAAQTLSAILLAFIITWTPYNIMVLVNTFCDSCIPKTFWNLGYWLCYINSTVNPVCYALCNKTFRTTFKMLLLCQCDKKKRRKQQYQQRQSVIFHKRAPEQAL
# [11] = biological target: T1, Sodium-dependent dopamine transporter; experiment: Displacement of [3H]WIN35428 from human recombinant DAT at 10 uM after 1.5 hrs by microbeta scintillation counting analysis
# [12] = biological target: D(1B) dopamine receptor (Homo sapiens) (UniProt P21918); experiment: Displacement of [3H]SCH23390 from human recombinant D5 receptor at 10 uM after 1.5 hrs by microbeta scintillation counting analysis
# D(1B) dopamine receptor (Homo sapiens), sequence (P21918 whole entry): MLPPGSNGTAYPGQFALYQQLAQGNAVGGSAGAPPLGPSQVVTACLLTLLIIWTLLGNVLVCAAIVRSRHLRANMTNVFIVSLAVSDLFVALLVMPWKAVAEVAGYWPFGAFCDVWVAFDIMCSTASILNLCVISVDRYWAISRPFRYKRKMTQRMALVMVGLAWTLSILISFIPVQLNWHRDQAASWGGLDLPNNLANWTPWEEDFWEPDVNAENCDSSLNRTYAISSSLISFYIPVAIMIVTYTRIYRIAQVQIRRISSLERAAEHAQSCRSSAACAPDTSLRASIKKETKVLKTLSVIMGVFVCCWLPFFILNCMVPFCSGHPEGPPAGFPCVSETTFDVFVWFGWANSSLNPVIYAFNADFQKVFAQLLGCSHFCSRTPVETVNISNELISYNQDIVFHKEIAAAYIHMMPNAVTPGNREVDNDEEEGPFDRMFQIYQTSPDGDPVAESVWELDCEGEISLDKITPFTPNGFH
# Histamine H2 receptor [13] = biological target: T2, Histamine H2 receptor; experiment: Displacement of [3H]tiotidine from human recombinant histamine H2 receptor at 10 uM after 1.5 hrs by microbeta scintillation counting analysis
# Rattus norvegicus = species: Rattus norvegicus; experiment: Inhibitory activity against benzodiazepine receptor in rat brain at 10 uM; assay type: tissue-based
# [14] = biological target: Neuronal acetylcholine receptor; alpha3/beta4 (Homo sapiens) (UniProt P30926+P32297); experiment: Displacement of [3H]epibatidine from alpha3beta4 nAChR at 10 uM after 4 hrs by liquid scintillation counting analysis; assay type: protein-complex assay
# [15] = biological target: Sigma non-opioid intracellular receptor 1 (Rattus norvegicus, UniProt Q9R0C9); experiment: Displacement of [3H]pentazocine from sigma 1 receptor in rat brain membrane after 2.5 hrs by microbeta scintillation counting analysis; assay type: cell membranes
# [16] = biological target: D(3) dopamine receptor (Homo sapiens) (UniProt P35462); experiment: Displacement of [3H]N-methylspiperone from D3 receptor at 10 uM after 1.5 hrs by microbeta scintillation counting analysis
# D(3) dopamine receptor (Homo sapiens), sequence (P35462 whole entry): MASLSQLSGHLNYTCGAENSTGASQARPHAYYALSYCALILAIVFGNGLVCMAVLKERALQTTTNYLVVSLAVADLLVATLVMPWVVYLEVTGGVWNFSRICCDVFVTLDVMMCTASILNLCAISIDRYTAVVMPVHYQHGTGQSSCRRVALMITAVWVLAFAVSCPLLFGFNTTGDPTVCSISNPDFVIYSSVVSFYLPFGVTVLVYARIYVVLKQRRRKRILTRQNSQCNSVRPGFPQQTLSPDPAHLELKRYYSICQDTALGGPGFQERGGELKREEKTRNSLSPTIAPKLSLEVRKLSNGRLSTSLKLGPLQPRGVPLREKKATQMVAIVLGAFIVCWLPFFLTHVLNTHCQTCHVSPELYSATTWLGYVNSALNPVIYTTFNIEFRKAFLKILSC
# [17] = biological target: Neuronal acetylcholine receptor; alpha3/beta2 (Homo sapiens) (UniProt P17787+P32297); experiment: Displacement of [3H]epibatidine from alpha3beta2 nAChR at 10 uM after 4 hrs by liquid scintillation counting analysis; assay type: protein-complex assay
# Histamine H1 receptor = Histamine H1 receptor (Homo sapiens, UniProt P35367); experiment: Displacement of [3H]pyrilamine from human recombinant histamine H1 receptor after 1.5 hrs by microbeta scintillation counting analysis
# [18] = biological target: Neuronal acetylcholine receptor; alpha2/beta4 (Homo sapiens) (UniProt P30926+Q15822); experiment: Displacement of [3H]epibatidine from alpha2beta4 nAChR at 10 uM after 4 hrs by liquid scintillation counting analysis; assay type: protein-complex assay
# [19] = biological target: Beta-1 adrenergic receptor (Homo sapiens) (UniProt P08588); experiment: Displacement of [125I]Iodopindolol from beta 1 adrenergic receptor at 10 uM after 1.5 hrs by microbeta scintillation counting analysis
# Beta-1 adrenergic receptor (Homo sapiens), sequence (P08588 whole entry, looked up): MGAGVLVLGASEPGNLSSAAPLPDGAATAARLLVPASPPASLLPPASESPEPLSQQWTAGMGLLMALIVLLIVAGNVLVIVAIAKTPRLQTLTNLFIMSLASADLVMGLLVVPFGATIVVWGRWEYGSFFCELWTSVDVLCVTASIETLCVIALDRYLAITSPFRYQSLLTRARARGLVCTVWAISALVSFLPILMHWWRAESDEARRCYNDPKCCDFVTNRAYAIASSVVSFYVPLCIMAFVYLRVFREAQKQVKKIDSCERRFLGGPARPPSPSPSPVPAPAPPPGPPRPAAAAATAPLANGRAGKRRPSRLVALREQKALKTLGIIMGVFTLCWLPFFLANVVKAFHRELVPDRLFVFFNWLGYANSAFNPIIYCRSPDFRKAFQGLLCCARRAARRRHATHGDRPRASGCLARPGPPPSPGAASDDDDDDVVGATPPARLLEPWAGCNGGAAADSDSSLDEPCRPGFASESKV
# [20] = Selectivity ratio of Ki for human recombinant DAT to Ki for sigma 1 receptor in rat brain membrane; assay type: cell membranes
# [21] = biological target: Sodium-dependent serotonin transporter (Homo sapiens) (UniProt P31645); experiment: Displacement of [3H]citalopram from human recombinant SERT at 10 uM after 1.5 hrs by microbeta scintillation counting analysis
# Sodium-dependent serotonin transporter (Homo sapiens), sequence (P31645 whole entry, looked up): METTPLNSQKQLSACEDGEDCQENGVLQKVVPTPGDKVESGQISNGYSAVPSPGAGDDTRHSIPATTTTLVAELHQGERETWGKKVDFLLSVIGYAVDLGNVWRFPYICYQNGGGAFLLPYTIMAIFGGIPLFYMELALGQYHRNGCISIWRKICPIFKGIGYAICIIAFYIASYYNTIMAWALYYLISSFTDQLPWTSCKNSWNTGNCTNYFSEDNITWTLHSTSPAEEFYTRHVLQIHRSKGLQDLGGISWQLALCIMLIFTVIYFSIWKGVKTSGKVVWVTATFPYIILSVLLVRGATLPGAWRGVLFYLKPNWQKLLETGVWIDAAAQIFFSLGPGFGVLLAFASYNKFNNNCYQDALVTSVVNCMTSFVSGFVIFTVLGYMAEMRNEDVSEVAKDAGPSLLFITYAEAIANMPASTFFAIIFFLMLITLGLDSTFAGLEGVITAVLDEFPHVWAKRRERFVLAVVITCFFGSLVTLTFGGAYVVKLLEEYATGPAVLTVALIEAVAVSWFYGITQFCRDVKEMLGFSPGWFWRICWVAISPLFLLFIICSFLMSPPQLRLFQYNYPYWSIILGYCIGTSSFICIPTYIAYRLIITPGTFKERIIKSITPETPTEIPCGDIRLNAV
# [22] = biological target: Mu-type opioid receptor (Homo sapiens) (UniProt P35372); experiment: Displacement of [3H]DAMGO from mu-opioid receptor at 10 uM after 1.5 hrs by microbeta scintillation counting analysis
# Mu-type opioid receptor (Homo sapiens), sequence (P35372 whole entry): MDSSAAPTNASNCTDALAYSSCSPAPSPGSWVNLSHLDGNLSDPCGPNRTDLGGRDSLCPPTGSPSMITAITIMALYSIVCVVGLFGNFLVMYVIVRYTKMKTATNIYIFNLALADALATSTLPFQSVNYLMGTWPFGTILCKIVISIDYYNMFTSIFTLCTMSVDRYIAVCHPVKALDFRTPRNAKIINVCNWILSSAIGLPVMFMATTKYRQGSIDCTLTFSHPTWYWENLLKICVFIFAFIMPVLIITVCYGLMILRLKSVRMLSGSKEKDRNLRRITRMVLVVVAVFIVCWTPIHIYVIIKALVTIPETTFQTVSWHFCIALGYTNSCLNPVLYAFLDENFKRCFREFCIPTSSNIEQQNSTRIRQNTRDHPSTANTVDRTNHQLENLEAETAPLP
# [23] = biological target: Neuronal acetylcholine receptor; alpha2/beta2 (Homo sapiens) (UniProt P17787+Q15822); experiment: Displacement of [3H]epibatidine from alpha2beta2 nAChR at 10 uM after 4 hrs by liquid scintillation counting analysis; assay type: protein-complex assay
# [24] = biological target: Neuronal acetylcholine receptor; alpha4/beta2 (Rattus norvegicus) (UniProt P09483+P12390); experiment: Displacement of [3H]epibatidine from alpha4beta2* nAChR in rat forebrain at 10 uM after 4 hrs by liquid scintillation counting analysis
# [25] = biological target: Delta-type opioid receptor (Homo sapiens) (UniProt P41143); experiment: Displacement of [3H]DADLE from human recombinant delta-opioid receptor at 10 uM after 1.5 hrs by microbeta scintillation counting analysis
# Delta-type opioid receptor (Homo sapiens), sequence (P41143 whole entry): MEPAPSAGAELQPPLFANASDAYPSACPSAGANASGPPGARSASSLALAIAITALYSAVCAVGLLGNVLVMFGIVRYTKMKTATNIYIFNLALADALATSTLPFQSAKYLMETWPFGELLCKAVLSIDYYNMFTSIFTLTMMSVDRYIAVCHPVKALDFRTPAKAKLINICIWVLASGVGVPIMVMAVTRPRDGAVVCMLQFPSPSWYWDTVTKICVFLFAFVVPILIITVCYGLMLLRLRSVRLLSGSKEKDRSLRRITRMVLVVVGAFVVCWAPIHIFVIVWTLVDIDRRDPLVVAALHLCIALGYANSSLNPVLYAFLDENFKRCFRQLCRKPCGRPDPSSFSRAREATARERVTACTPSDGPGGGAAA
# [26] = biological target: 5-hydroxytryptamine receptor 6 (Homo sapiens, UniProt P50406); experiment: Displacement of [3H]LSD from human recombinant 5-HT6 receptor after 1.5 hrs by microbeta scintillation counting analysis
Compound,pKi [3],Efficacy [4] [%],pKi [9],Efficacy [10] [%],Efficacy [11] [%],Efficacy [12] [%],Efficacy (Histamine H2 receptor [13]) [%],Efficacy (Rattus norvegicus) [%],pKi [15],Efficacy [16] [%],Efficacy [19] [%],Efficacy [21] [%],Efficacy [22] [%],Efficacy [25] [%],also measured
c1ccc(OCc2cc(OC[C@@H]3CCCN3)no2)cc1,6.43,36.6,< 5.00,12.2,59.4,36.5,57.2,27.1,8.39,35.9,-1.2,3.4,29.8,10.3,pKi [1]: 5.29; pKi [2]: < 5.00; Activity [5]: < 50%; Ratio Ki [6]: 50; pKi (Histamine H2 receptor [7]): 5.29; Activity [8]: < 50%; Activity [14]: < 50%; Activity [17]: < 50%; pKi (Histamine H1 receptor): < 5.00; Activity [18]: < 50%; Ratio Ki [20]: 90; Activity [23]: < 50%; Activity [24]: < 50%
c1ccc(OCc2cc(OC[C@@H]3CCN3)no2)cc1,7.62,44.5,< 5.00,47.6,91.8,4.9,40.9,23.5,7.48,12.9,22.1,8.8,38.1,4.9,pKi [26]: < 5.00
